Data set [1] deals with trypanothione synthetase of L. infantum (LiTryS) (Leishmania infantum, UniProt A4I2Z3). Kind of data set: TryS activity screening assay on recombinant LiTryS. The class given is biochemical. The note with it: read-out: LiTryS activity [% at 30 μM]. The protocol: (§1) TryS from different trypanosomatids was produced in recombinant form with an N-terminal His-tag. The constructs pET-15b TbTryS and pET-28c(+)LiTryS were used to express TryS of T. b. brucei 427 (MITat1.4, GenBank accession protein id CAC87573.1), and L. infantum JPCM5 (GenBank accession protein id CAM69145.1). E. coli strain BL21 (DE3) served as the expression host. For TbTryS, the cells were cultured in a medium based in Terrific Broth and induction with isopropyl 1-thio-β-D-galactopyranoside (IPTG), while for LiTryS, the cells were cultured in ZYM-5052 auto-induction medium. For a detailed description of the expression, see Benítez et al.. The purification was performed by immobilised metal affinity chromatography in a HisTrap Fast Flow column (GE Healthcare) followed by size exclusion chromatography. […] The fractions containing recombinant TryS with ≥95% purity were pooled and concentrated to >10 mg protein/mL using a 10 kDa cut-off Amicon filter (Millipore, Billerica, CA). Glycerol was added at a final concentration of 40% (v/v). The samples were stored at -80°C. Enzyme purity and activity were assessed by SDS-PAGE (12%) under reducing conditions and by the end-point TryS assay (see TryS activity screening assay), respectively. Protein concentration was determined using the bicinchoninic acid assay with bovine serum albumin as standard. The protocols yielded 25–30 mg TbTryS or LiTryS per litre of culture medium and homogeneous specific activity.
(§2) For all TryS, ATP was used at 150 μM because of a high background signal at higher concentrations and Spd fixed at 2 mM, in agreement with the intracellular levels calculated from data reported in the literature for trypanosomatids. GSH was adjusted to 0.05 and 0.25 mM for TbTryS and LiTryS, respectively, to avoid substrate inhibition or to approach physiological concentrations. […] Microtiter plate wells were loaded with 5 μL of the test compound, DMSO (reaction control) or a TryS specific inhibitor (inhibition control) and 40 μL of MM solution. The reactions were then started by adding 5 μL of TryS (2 and 3*10^−5 μmol*min^-1*mL^-1 for LiTryS and TbTryS, respectively) and stopped after 15 min with 200 μL BIOMOL® GREEN reagent (Enzo Life Sciences). The compounds used as inhibition control were added at concentrations that inhibited 50% TryS activity: 30 μM and 150 nM MOL2008 for TbTryS and LiTryS, respectively. Blanks were prepared for each condition by adding 5 μL of screening reaction buffer instead of the enzyme. The TryS activity is calculated as follows: TrySactivity%=A650nmCi-A650nmCiB/A650nmE-A650nmEB*100%
(§3) A650 nm Ci is the mean absorbance at 650 nm for the reaction test with compound I (Ci), A650 nm CiB is the mean absorbance at 650 nm for the blank control with compound I (CiB), A650 nm E is the mean absorbance at 650 nm for the reaction control with DMSO (E) and A650 nm EB is the mean absorbance at 650 nm for the blank control with DMSO (EB). The errors were expressed as 2 standard deviations (SD), SD estimated as σ^n−1.

The subject of data set [2] is L. infantum amastigotes (intracellular, in J774.A1 macrophages). Kind of data set: Viability assay for L. infantum amastigotes. Format: cell-based. Particulars: Leishmania infantum, J774.A1, 24 h, read-out: L. infantum amastigote viability [% at 20 μM]. The protocol: Viability assay for L. infantum amastigotes. L. infantum promastigotes from the reference strain MHOM/MA/67/ITMAP263, stably transfected with a vector encoding a red-shifted luciferase gene (RE9HLUC; Branchini et al.; Benítez et al.) were grown in fresh complete RPMI medium (RPMI basic medium containing 25 mM HEPES, 10% v/v iFBS, 100 U/mL penicillin, 100 μg/mL streptomycin and 15 μg/mL hygromycin B) at 28°C in sealed culture flasks. Metacyclic promastigotes were obtained by a negative selection procedure using peanut agglutinin and used to infect murine macrophages (cell line J774.A1) at a 1:10 ratio for macrophages (5×10^6 cells): parasites (5×10^7 cells). 200 μL of this suspension was added per well to a 96-well culture microplate, which was then incubated at 37°C for 24 h in a 5% CO2/95% air atmosphere incubator. […] The culture microplate was incubated in the CO2 incubator for additional 24 h. Next, the supernatant was removed and the microplate wells were washed with pre-warmed PBS (200 μL). […] All conditions were tested in triplicates and the percentage amastigote viability was calculated as described for infective T. b. brucei, with errors expressed as one SD, estimated as σ^n-1.
A macrophage cell density correction factor based on the incorporation of propidium iodide was calculated and applied to normalise amastigote viability related to host cell density in the well. For a detailed explanation of the protocol, see Benítez et al..

Data set [3] deals with murine macrophages J774.A1. Kind of data set: Cytotoxicity assays on murine macrophages (WST-1). Format: cell-based. Particulars: error 1 SD; for Macrophage toxicity [% at 30 μM]: % cell death at 30 μM. How it is done:
Cytotoxicity assays on murine macrophages. Murine macrophages from the cell line J774.A1 (ATCC® TIB-67TM) were cultivated under a humidified 5% CO2/95% air atmosphere at 37°C in Dulbecco’s modified Eagle’s medium (DMEM) supplemented with 10% (v/v) FBS, 10 U/mL penicillin and 10 μg/mL streptomycin. The experimental protocol for the determination of EC50 values was identical as described by Demoro et al. 2012 [71], with the following change: 200 μL/well of a cell suspension at 6 × 10^4 cells per mL was added in a 96-well culture plate and washed with 150 μL of DMEM. The cytotoxicity of the compounds was evaluated in triplicate using the WST-1 reagent (Roche). The control treatment included cells cultured in the presence of DMSO 1% (v/v). Absorbance at 450 nm (Ai 450 nm), corresponding to the formazan dye produced by metabolically active cells, was measured with an EL 800-microplate reader. The corrected absorbance values at 450 nm (Ai c 450 nm) were obtained by subtracting the corresponding absorbance value at 630 nm (Ai 630 nm) and the blank average (Ablank 450 nm): Aic450nm=Ai450nm-Ai630nm-Ablank450nm
Cell viability (%), with the number of viable cells proportional to the absorbance, was calculated as follows: cellviability%=Aic450nm/Anegativecontrolc450nm*100%
Ai c 450 nm refers to an absorbance obtained from cells treated with compound I at a specific concentration (i) and Anegative control c 450 nm refers to an absorbance obtained from cells in the DMSO-treated control (negative control). The errors were calculated using error propagations and are expressed as one SD, estimated as σ^n−1.
In general terms: Formazan colour is commonly taken as a measure of viable cells.

The subject of data set [4] is trypanothione synthetase of T. b. brucei (TbTryS). The data set can be described thus: TryS activity screening assay on recombinant TbTryS. Format: biochemical. The note with it: % activity at 30 μM compound, errors 2 SD. How it is done: as §1, §2, §3
The subject of data set [5] is bloodstream form of T. b. brucei strain 427. The data set can be described thus: Viability assay for T. b. brucei (whole parasite, bioluminescence). The note with it: 24 h; for T. b. brucei (BS) proliferation [% at 10 μM]: 10 μM compound; for EC50: read-out: T. b. brucei (BS) [EC50. The class given is cell-based. How it is done: Viability assay for T. b. brucei. The bloodstream form of the monomorphic T. b. brucei strain 427, cell line 5141313, constitutively and stably expressing an ectopic copy of the Photinus pyralis red-shifted luciferase, was cultured in vitro with HMI-9 medium, supplemented with 10% fetal bovine serum, 10 U/mL penicillin (Gibco), 10 μg/mL streptomycin (Gibco), 0.2 μg/mL bleomycin (Jena Bioscience), 4 μg/mL G418 disulfate salt (Sigma-Aldrich) and 0.2 μg/mL puromycin (Invitrogen), inside a humidified incubator (Thermo Fisher Scientific) with controlled temperature (37°C) and CO2 (5%) in a 25 or 75 cm^2 vented-cap culture-flask. The anti-trypanosomal activity of compounds was evaluated in a 96-well culture plate containing 2.2 μL/well DMSO (negative control) or compounds dissolved in DMSO (1% final concentration), and 220 μL/well of a suspension of 1 × 10^5 parasites/mL. The plates were incubated at 37°C and 5% CO2 for 24 h. Next, each well was transferred to a 96-well black plate, and 20 μL of a solution containing d-luciferin (1.5 mg/mL in PBS glucose 1% w/v) and Triton X-100 (0.05% v/v) was added. Bioluminescence signal was measured in a LUMIstar OPTIMA Microplate luminometer using the following settings: 10 s shaking, 5 s/well acquisition, 0.2 s measurement delay, maximum gain, and 37°C. For the bioluminescence assay, parasite viability was calculated according to the following formula: parasiteviability%=BLcpd-BLblank/BLneg-BLblank*100%
BL refers to the mean of bioluminescence signal corresponding to the tested compound (cpd), the blank (blank, complete media containing 1% v/v DMSO), or the negative control (neg, parasites treated with 1% v/v DMSO). EC50 values were determined from concentration-response curves fitted to a four-parameter sigmoid equation using the GraphPad Prism software (version 6.0). All errors are expressed as one SD, estimated as σ^n-1. For a detailed explanation of the protocol, see Dibello et al..

Where two headings read alike, the source gives them in different places.

For orientation: viability means a read-out of living cells in per cent, often relative to untreated cells. Broadly, the EC50 is the concentration giving half of the maximal effect.

Chain of trypanothione synthetase of L. infantum (LiTryS) (A4I2Z3 entry or part of it): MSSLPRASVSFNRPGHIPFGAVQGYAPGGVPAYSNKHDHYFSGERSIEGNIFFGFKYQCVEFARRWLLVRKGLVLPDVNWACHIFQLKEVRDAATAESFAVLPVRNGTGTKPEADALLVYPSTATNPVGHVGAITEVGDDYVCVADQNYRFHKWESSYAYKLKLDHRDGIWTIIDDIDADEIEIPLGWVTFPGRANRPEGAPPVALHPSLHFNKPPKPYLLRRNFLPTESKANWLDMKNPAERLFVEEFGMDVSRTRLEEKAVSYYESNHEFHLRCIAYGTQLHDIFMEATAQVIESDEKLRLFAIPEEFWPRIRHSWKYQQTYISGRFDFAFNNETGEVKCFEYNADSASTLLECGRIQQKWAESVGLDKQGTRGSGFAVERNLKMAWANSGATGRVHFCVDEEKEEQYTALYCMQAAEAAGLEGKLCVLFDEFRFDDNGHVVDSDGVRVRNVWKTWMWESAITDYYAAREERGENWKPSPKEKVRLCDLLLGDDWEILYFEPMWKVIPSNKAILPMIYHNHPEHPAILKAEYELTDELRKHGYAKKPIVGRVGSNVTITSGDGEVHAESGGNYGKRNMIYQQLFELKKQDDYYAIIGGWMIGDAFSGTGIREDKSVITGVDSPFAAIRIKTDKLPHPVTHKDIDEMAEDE

Consider `CC(C)(C)OC(=O)N1CCN(CCNC(=O)CN2C(=O)Cc3ccccc3-c3ccccc32)CC1` [4b, tert-Butyl 4-{2-[2-(6-oxo-6,7-dihydro-5H-dibenzo[b,d]azepin-5-yl)acetamido]ethyl}piperazine-1-carboxylate], for which the activity at 30 µM in data set [1] is 103 ± 8.6%. In addition, in data set [2], the viability at 20 µM is 93.9 ± 6.6%. The “Macrophage toxicity [% at 30 μM]” value in data set [3] is recorded as 40%.
Regarding `CN(CCNC(=O)CN1C(=O)Cc2c([nH]c3ccc(I)cc23)-c2ccc(Cl)cc21)C(=O)OC(C)(C)C` [10a, tert-Butyl {2-[2-(3-chloro-9-iodo-6-oxo-7,12-dihydrobenzo[2,3]azepino[4,5-b]indol-5(6H)-yl)acetamido]ethyl}(methyl)carbamate], the activity at 30 µM in data set [1] amounted to 38.3 ± 4.8%. Further, the “TbTryS activity [% at 30 μM]” value in data set [4] amounted to 90.2 ± 13.2%. Moreover, the “T. b. brucei (BS) proliferation [% at 10 μM]” value in data set [5] stood at 0.0 ± 1.2%. In data set [5] (Trypanosoma brucei), the EC50 turned out to be 5.3 ± 1.3 µM. Besides, the “Macrophage toxicity [% at stated conc.]” value in data set [3] (% cell death at 60 μM) was found to be 75.9 ± 9.9%.
For `CN(CCNC(=O)CN1C(=O)Cc2c([nH]c3ccc(Cl)cc23)-c2ccc(Cl)cc21)C(=O)OC(C)(C)C` [10b, tert-Butyl {2-[2-(3,9-dichloro-6-oxo-7,12-dihydrobenzo[2,3]azepino[4,5-b]indol-5(6H)-yl)acetamido]ethyl}(methyl)carbamate] the same measures were 35.4%, 94.2 ± 17.1%, 0.0 ± 1.4%, 1.9 ± 1.2 µM and 47.9 ± 4.8%.
As for `CN(CCNC(=O)CN1C(=O)Cc2c([nH]c3ccc(C(F)(F)F)cc23)-c2ccc(Cl)cc21)C(=O)OC(C)(C)C` [10c, tert-Butyl {2-[2-(3-chloro-6-oxo-9-trifluoromethyl-7,12-dihydrobenzo[2,3]azepino[4,5-b]indol-5(6H)-yl)acetamido]ethyl}(methyl)carbamate], in data set [1], the activity at 30 µM is 43.2 ± 9.1%. In addition, the “TbTryS activity [% at 30 μM]” value in data set [4] is on record as 95.2 ± 13.2%. Also, in data set [5], the “T. b. brucei (BS) proliferation [% at 10 μM]” value is given as 0.0 ± 1.0% and the concentration for a half-maximal effect (EC50) was approximately 12 µM. Moreover, the 50% effective concentration (EC50) in data set [5] (Trypanosoma brucei) is 11.6 ± 1.8 µM. Further, the “Macrophage toxicity [% at stated conc.]” value in data set [3] (% cell death at 100 μM) came to 94.9 ± 7.1%.
`CC(C)(C)OC(=O)CN1C(=O)Cc2ccccc2-c2ccccc21` [compound 18, tert-Butyl 2-(6-oxo-6,7-dihydro-5H-dibenzo[b,d]azepin-5-yl)acetate]: in data set [1], the activity at 30 µM worked out at 99.4 ± 3%. For the same compound, in data set [3], the “Macrophage toxicity [% at 30 μM]” value was 60%.

Values taken from article PMC10688702, “The indole motif is essential for the antitrypanosomal activity of N^5-substituted paullones” (PLOS ONE, 2023).
